In patent US11780840B2 (Incyte Corporation, priority 2020, dated 2023):

Key:
[1] = molecular target: T1, catalytic domain (JH1, amino acids 826-1132) of human JAK2 (Homo sapiens, UniProt O60674); assay: JAK2 LanthaScreen JH1 Binding Assay; details: JAK2 JH1 (1.5 nM), 50 nM fluorescent JAK2-JH1 tracer, 2 hours at 25° C.; read-out: JH1 BIND
T1 construct: catalytic domain (JH1, amino acids 826-1132) of human JAK2; FLAG (N); purchased Carna Biosciences 08-445-20N; host or cells: baculovirus expression system
T1 sequence (O60674 826-1132): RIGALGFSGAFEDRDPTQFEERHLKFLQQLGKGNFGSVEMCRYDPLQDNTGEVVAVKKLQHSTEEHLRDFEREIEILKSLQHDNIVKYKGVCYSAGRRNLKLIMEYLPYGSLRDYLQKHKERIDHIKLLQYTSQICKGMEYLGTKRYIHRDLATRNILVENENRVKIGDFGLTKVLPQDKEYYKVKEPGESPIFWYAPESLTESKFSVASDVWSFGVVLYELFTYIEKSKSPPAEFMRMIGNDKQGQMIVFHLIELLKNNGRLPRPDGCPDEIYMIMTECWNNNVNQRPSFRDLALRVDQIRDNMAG
Method in brief: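 TR-FRET tracer-displacement format: compound IC50 from four-parameter curves after 2 h at 25° C. Reaction held 1.5 nM biotinylated, FLAG-tagged JH1 (aa 826-1132), 50 nM tracer, 0.5 nM Streptavidin-Tb, pH 7.5 Tris buffer; 2 mM ATP set nonspecific background.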

[2] = molecular target: T2, pseudo-kinase domain (JH2, amino-acids 536-812 with 3 surface mutations W659A, W777A, F794H) of human Wild Type JAK2 (Homo sapiens, UniProt O60674, F794H/W659A/W777A); assay: JAK2 LanthaScreen JH2-WT Binding Assay; details: JAK2 JH2-WT (0.145 nM), 50 nM Fluorescent JAK2-JH2 Tracer, 1 hour at 25° C.; read-out: JH2 BIND WT
T2 construct: pseudo-kinase domain (JH2, amino-acids 536-812 with 3 surface mutations W659A, W777A, F794H); His (C); Avi (biotinylated) (C); purchased BPS Bioscience 79463; host or cells: baculovirus expression system
T2 sequence (O60674 536-812 W659A/W777A/F794H): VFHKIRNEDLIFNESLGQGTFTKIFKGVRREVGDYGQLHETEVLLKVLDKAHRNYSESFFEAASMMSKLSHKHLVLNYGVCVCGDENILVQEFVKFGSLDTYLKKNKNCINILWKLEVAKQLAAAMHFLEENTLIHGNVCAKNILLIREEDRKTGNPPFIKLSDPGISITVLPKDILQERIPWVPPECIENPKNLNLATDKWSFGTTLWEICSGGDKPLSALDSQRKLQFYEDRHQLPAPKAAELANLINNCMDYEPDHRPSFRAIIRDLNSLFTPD
Method in brief: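 Binding was measured by TR-FRET between streptavidin-Tb (0.25 nM) on biotinylated JH2 (0.145 nM) and 50 nM fluorescent tracer, with compound dose series, 1 h at 25° C; IC50 fitted.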

[3] = molecular target: T3, pseudo-kinase domain (JH2, amino-acids 536-812 with 3 surface mutations W659A, W777A, F794H) of human V617F mutant JAK2 (Homo sapiens, UniProt O60674, F794H/V617F/W659A/W777A); assay: JAK2 LanthaScreen JH2-V617F Binding Assay; details: JAK2 JH2-V617F (0.26 nM), 50 nM Fluorescent JAK2-JH2 Tracer, 1 hour at 25° C.; read-out: JH2 BIND V617F
T3 construct: pseudo-kinase domain (JH2, amino-acids 536-812 with 3 surface mutations W659A, W777A, F794H); His (C); Avi (biotinylated) (C); purchased BPS Bioscience 79498; host or cells: baculovirus expression system
T3 sequence (O60674 536-812 V617F/W659A/W777A/F794H): as the sequence (O60674 536-812 W659A/W777A/F794H) above, with V82F counted along it
Method in brief: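 This is a TR-FRET tracer-displacement format with a 1 h, 25 °C incubation. It combined 0.26 nM baculovirus-expressed biotinylated JH2-V617F, 50 nM fluorescent JAK2-JH2 tracer and 0.25 nM streptavidin-Tb cryptate in 50 mM Tris pH 7.5, 10 mM MgCl2, 5 mM DTT. Background came from 2 mM ATP, and IC50 values were from four-parameter dose-response fits.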

Cn1cc(-c2[nH]c3ncc4c(c3c2-c2ccc3c(cnn3C)c2)n(C2CCOCC2)c(=O)n4C)cn1 [Example 48, 3-Methyl-8-(1-methyl-1H-indazol-5-yl)-7-(1-methyl-1H-pyrazol-4-yl)-1-(tetrahydro-2H-pyran-4-yl)-3,6-dihydroimidazo[4,5-d]pyrrolo[2,3-b]pyridin-2(1H)-one] gave an IC50 [1] of over 1 µM, an IC50 [2] of at most 0.01 µM and an IC50 [3] of at most 0.01 µM.
Compound Cn1c(=O)n(C2CCOCC2)c2c3c(-c4ccc(C5(C#N)CC5)cc4)c(-c4ccc(CN5CCC(S(C)(=O)=O)CC5)cc4)[nH]c3ncc21 [Example 49, 1-(4-(3-Methyl-7-(4-((4-(methylsulfonyl)piperidin-1-yl)methyl)phenyl)-2-oxo-1-(tetrahydro-2H-pyran-4-yl)-1,2,3,6-tetrahydroimidazo [4,5-d]pyrrolo[2,3-b]pyridin-8-yl)phenyl)cyclo-propane-1-carbonitrile] has an IC50 [1] of 0.1 to 0.5 µM, an IC50 [2] of at most 0.01 µM and an IC50 [3] of at most 0.01 µM.
For CC(C)n1c(=O)n(C)c2cnc3[nH]c(-c4cnn(CC(C)(C)O)c4)c(-c4ccc(C5(C#N)CC5)cc4)c3c21 [Example 50, 1-(4-(7-(1-(2-Hydroxy-2-methylpropyl)-1H-pyrazol-4-yl)-1-isopropyl-3-methyl-2-oxo-1,2,3,6-tetrahydroimidazo [4,5-d]pyrrolo[2,3-b]pyridin-8-yl)phenyl) cyclopropane-1-carbonitrile], the IC50 [1] was 0.5 to 1 µM, the IC50 [2] was at most 0.01 µM and the IC50 [3] was at most 0.01 µM.
Work on Cn1c(=O)n(C2CCOCC2)c2c3c(-c4ccc(C5(N6CCOCC6)CC5)cc4)c(-c4cnn(CC(C)(C)O)c4)[nH]c3ncc21 [Example 51, 7-(1-(2-Hydroxy-2-methylpropyl)-1H-pyrazol-4-yl)-3-methyl-8-(4-(1-morpholinocyclo-propyl)phenyl)-1-(tetrahydro-2H-pyran-4-yl)-3,6-dihydroimidazo[4,5-d]pyrrolo[2,3-b]pyridin-2(1H)-one] yielded an IC50 [1] of over 1 µM, an IC50 [2] of at most 0.01 µM and an IC50 [3] of at most 0.01 µM.
With Cn1ncc2cc(-c3c(-c4ccc(CN5CCC(S(C)(=O)=O)CC5)cc4)[nH]c4ncc5c(c34)n(C3CCCC3)c(=O)n5C)ccc21 [Example 52, 1-Cyclopentyl-3-methyl-8-(1-methyl-1H-indazol-5-yl)-7-(4-((4-(methylsulfonyl)piperidin-1-yl)methyl)phenyl)-3,6-dihydroimidazo[4,5-d]pyrrolo[2,3-b]pyridin-2(1H)-one] the IC50 [1] was 0.1 to 0.5 µM, the IC50 [2] was at most 0.01 µM and the IC50 [3] was at most 0.01 µM.
In the case of Cn1ncc2cc(-c3c(-c4cnn(Cc5ccncc5)c4)[nH]c4ncc5c(c34)n(C3CCCC3)c(=O)n5C)ccc21 [Example 53, 1-Cyclopentyl-3-methyl-8-(1-methyl-1H-indazol-5-yl)-7-(1-(pyridin-4-ylmethyl)-1H-pyrazol-4-yl)-3,6-dihydroimidazo[4,5-d]pyrrolo[2,3-b]pyridin-2(1H)-one], the IC50 [1] is reported as 0.1 to 0.5 µM, the IC50 [2] is reported as at most 0.01 µM and the IC50 [3] is reported as at most 0.01 µM.
COCCn1cc(-c2[nH]c3ncc4c(c3c2-c2ccc3c(cnn3C)c2)n(C2CCCC2)c(=O)n4C)cn1 [Example 54, 1-Cyclopentyl-7-(1-(2-methoxyethyl)-1H-pyrazol-4-yl)-3-methyl-8-(1-methyl-1H-indazol-5-yl)-3,6-dihydroimidazo[4,5-d]pyrrolo[2,3-b] pyridin-2(1H)-one] was tested, and the IC50 [1] was 0.1 to 0.5 µM, the IC50 [2] was at most 0.01 µM and the IC50 [3] was at most 0.01 µM.
Compound CC(C)n1c(=O)n(C)c2cnc3[nH]c(-c4cnn(CC(C)(C)O)c4)c(-c4ccc5c(cnn5C)c4)c3c21 [Example 55, 7-(1-(2-Hydroxy-2-methylpropyl)-1H-pyrazol-4-yl)-1-isopropyl-3-methyl-8-(1-methyl-1H-indazol-5-yl)-3,6-dihydroimidazo[4,5-d]pyrrolo[2,3-b] pyridin-2(1H)-one] has an IC50 [1] of over 1 µM, an IC50 [2] of at most 0.01 µM and an IC50 [3] of at most 0.01 µM.
Cn1ncc2cc(-c3c(-c4cnn(CC(F)F)c4)[nH]c4ncc5c(c34)n(C3CCCC3)c(=O)n5C)ccc21 [Example 56, 1-Cyclopentyl-7-(1-(2,2-difluoroethyl)-1H-pyrazol-4-yl)-3-methyl-8-(1-methyl-1H-indazol-5-yl)-3,6-dihydroimidazo[4,5-d]pyrrolo[2,3-b]pyridin-2(1H)-one] was tested, and the IC50 [1] was 0.1 to 0.5 µM, the IC50 [2] was at most 0.01 µM and the IC50 [3] was at most 0.01 µM.
Cn1c(=O)n(C2CCCC2)c2c3c(-c4cc5cnccc5s4)c(-c4cnn(CC(F)F)c4)[nH]c3ncc21 [Example 57, 1-Cyclopentyl-7-(1-(2,2-difluoroethyl)-1H-pyrazol-4-yl)-3-methyl-8-(thieno[3,2-c]pyridin-2-yl)-3,6-dihydroimidazo[4,5-d]pyrrolo[2,3-b]pyridin-2(1H)-one] gave an IC50 [1] of 0.1 to 0.5 µM, an IC50 [2] of at most 0.01 µM and an IC50 [3] of at most 0.01 µM.
For Cn1c(=O)n([C@H]2CCCOC2)c2c3c(-c4ccccc4)c(-c4ccc(CN5CCC(S(C)(=O)=O)CC5)cc4)[nH]c3ncc21 [Example 58, (S)-3-Methyl-7-(4-((4-(methylsulfonyl)piperidin-1-yl)methyl)phenyl)-8-phenyl-1-(tetrahydro-2H-pyran-3-yl)-3,6-dihydroimidazo[4,5-d]pyrrolo[2,3-b]pyridin-2(1H)-one], the IC50 [1] was 0.1 to 0.5 µM, the IC50 [2] was at most 0.01 µM and the IC50 [3] was 0.01 to 0.1 µM.
For COc1ccc(-c2c(-c3cnn(Cc4ccncc4)c3)[nH]c3ncc4c(c23)n(C2CCCC2)c(=O)n4C)cc1 [Example 59, 1-Cyclopentyl-8-(4-methoxyphenyl)-3-methyl-7-(1-(pyridin-4-ylmethyl)-1H-pyrazol-4-yl)-3,6-dihydroimidazo[4,5-d]pyrrolo[2,3-b]pyridin-2(1H)-one], the IC50 [1] was 0.1 to 0.5 µM, the IC50 [2] was at most 0.01 µM and the IC50 [3] was at most 0.01 µM.
Cn1ncc2cc(-c3c(-c4ccncc4)[nH]c4ncc5c(c34)n(C3CCCC3)c(=O)n5C)ccc21 [Example 60, 1-Cyclopentyl-3-methyl-8-(1-methyl-1H-indazol-5-yl)-7-(pyridin-4-yl)-3,6-dihydroimidazo[4,5-d]pyrrolo[2,3-b]pyridin-2(1H)-one] was tested, and the IC50 [1] was over 1 µM, the IC50 [2] was at most 0.01 µM and the IC50 [3] was at most 0.01 µM.
In the case of Cn1ncc2cc(-c3c(-c4cccnc4)[nH]c4ncc5c(c34)n(C3CCCC3)c(=O)n5C)ccc21 [Example 61, 1-Cyclopentyl-3-methyl-8-(1-methyl-1H-indazol-5-yl)-7-(pyridin-3-yl)-3,6-dihydroimidazo[4,5-d]pyrrolo[2,3-b]pyridin-2(1H)-one], the IC50 [1] is reported as over 1 µM, the IC50 [2] is reported as at most 0.01 µM and the IC50 [3] is reported as at most 0.01 µM.
With COc1ccc(-c2[nH]c3ncc4c(c3c2-c2ccc3c(cnn3C)c2)n(C(C)C)c(=O)n4C)cn1 [Example 62, 1-Isopropyl-7-(6-methoxypyridin-3-yl)-3-methyl-8-(1-methyl-1H-indazol-5-yl)-3,6-dihydroimidazo[4,5-d]pyrrolo[2,3-b]pyridin-2(1H)-one] the IC50 [1] was over 1 µM, the IC50 [2] was 0.01 to 0.1 µM and the IC50 [3] was 0.01 to 0.1 µM.
In the case of COc1ccc(-c2[nH]c3ncc4c(c3c2-c2ccc3c(cnn3C)c2)n(C2CCOCC2)c(=O)n4C)cn1 [Example 63, 7-(6-Methoxypyridin-3-yl)-3-methyl-8-(1-methyl-1H-indazol-5-yl)-1-(tetrahydro-2H-pyran-4-yl)-3,6-dihydroimidazo[4,5-d]pyrrolo[2,3-b]pyridin-2(1H)-one], the IC50 [1] is reported as over 1 µM, the IC50 [2] is reported as at most 0.01 µM and the IC50 [3] is reported as at most 0.01 µM.
Compound COc1ccc(-c2[nH]c3ncc4c(c3c2-c2ccc3c(cnn3C)c2)n(C2CCCC2)c(=O)n4C)cn1 [Example 64, 1-Cyclopentyl-7-(6-methoxypyridin-3-yl)-3-methyl-8-(1-methyl-1H-indazol-5-yl)-3,6-dihydroimidazo[4,5-d]pyrrolo[2,3-b]pyridin-2(1H)-one] has an IC50 [1] of over 1 µM, an IC50 [2] of at most 0.01 µM and an IC50 [3] of 0.01 to 0.1 µM.
In the case of CC(C)Oc1ccc(-c2[nH]c3ncc4c(c3c2-c2ccc3c(cnn3C)c2)n(C2CCCC2)c(=O)n4C)cn1 [Example 65, 1-Cyclopentyl-7-(6-isopropoxypyridin-3-yl)-3-methyl-8-(1-methyl-1H-indazol-5-yl)-3,6-dihydroimidazo[4,5-d]pyrrolo[2,3-b]pyridin-2(1H)-one], the IC50 [1] is reported as over 1 µM, the IC50 [2] is reported as 0.01 to 0.1 µM and the IC50 [3] is reported as 0.01 to 0.1 µM.
In the case of Cn1ncc2cc(-c3c(-c4ccc(OC5CCOCC5)nc4)[nH]c4ncc5c(c34)n(C3CCCC3)c(=O)n5C)ccc21 [Example 66, 1-Cyclopentyl-3-methyl-8-(1-methyl-1H-indazol-5-yl)-7-(6-((tetrahydro-2H-pyran-4-yl)oxy)pyridin-3-yl)-3,6-dihydroimidazo[4,5-d]pyrrolo[2,3-b]pyridin-2(1H)-one], the IC50 [1] is reported as over 1 µM, the IC50 [2] is reported as 0.01 to 0.1 µM and the IC50 [3] is reported as 0.01 to 0.1 µM.
